According to PubChem BioAssay AID1845202 (Molecular Pharmacology Branch, DTP, NCI, 2023):

System: DMS 114 tumor spheroids, viability % test/control
Test: Anticancer human tumor DMS 114 cell line growth inhibition;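 also: spheroids exposed to compounds for 7 days before read-out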;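 as to viability, T/C: luminescence used as a proxy for viable cells; 100% = DMSO vehicle control viability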
Conditions: spheroids with HUVEC and MSC; for IC50: curve of first compound; for viability, T/C: stronger effect = lower value
Excerpt: Multicellular complex tumor spheroid response to DNA repair inhibitors in combination with DNA-damaging drugs
This study explores the anticancer activities of DNA-damaging drugs and inhibitors of DNA damage repair, both as single agents and in combinations. Complex tumor spheroids comprised of malignant cells, endothelial cells and mesenchymal stem cells served as an in vitro model for human solid tumors. This model system incorporates physiologically relevant features and patient-derived or established malignant cell lines with clinically relevant genetic alterations from many tumor types. Twenty-six patient-derived or established malignant cell lines were evaluated representing sarcoma, melanoma, small cell lung cancer (SCLC), non-small cell lung cancer (NSCLC), as well as bladder, ovarian and pancreatic cancers. The concentration ranges selected for each drug and investigational agent were based upon clinically achievable concentrations if the clinical Cmax of the agent was known.
Compounds. The drugs and compounds olaparib (NSC753686), talazoparib (NSC767125), berzosertib (NSC777718), elimusertib (NSC800525), nedisertib (NSC802822), VX-984 (NSC792969), AZD-1390 (NSC803789), temozolomide (NSC362856), topotecan (NSC609699), trabectedin (NSC813783), staurosporine (NSC755774), and gemcitabine (NSC613327) were obtained from the National Cancer Institute (NCI) Developmental Therapeutics Program Chemical Repository. The FDA-approved anticancer drug set is available from the Developmental Therapeutics Program at https://dtp.cancer.gov/organization/dscb/obtaining/available_plates.htm. […] The stock solutions were prepared in dimethyl sulfoxide (DMSO, Sigma-Aldrich, St. Louis, MO, cat. D2650) at 400-fold the tested concentration and stored at -70 degrees C. Prior to their use, the stock solutions were diluted in fresh medium and the final DMSO concentration in the assay was 0.25% (v/v). All drugs and investigational agents were tested over a range starting from a high concentration at or near the clinical Cmax and decreasing in half-log increments. If the clinical Cmax for an agent had not been determined, the highest concentration tested was 10 microM.
Cell Lines. The patient-derived cancer cell (PDC) lines: 156681-154-R-J1-PDC, 283228-195-R-J1-PDC, 287954-098-R-J1-PDC, 292921-168-R-J2-PDC, 349418-098-R-PDC, 425362-245-T-J1-PDC, 556581-035-R-J1-PDC, and BL0293-F563-PDC were received from the NCI Patient-Derived Models Repository (PDMR, https://pdmr.cancer.gov). The established cell lines HS-SY-2 (RRID:CVCL_8719), MPNST, and SYO-1 (RRID:CVCL_7146) were obtained from the Sloan Kettering Institute. The alveolar soft parts sarcoma cell line ASPS-1 (RRID:CVCL_S738) was established at the NCI and grown from internal seed stocks. The following established cell lines were purchased from the American Type Culture Collection (ATCC, Manassas, VA): G-401 (ATCC, cat. CRL-1441, RRID:CVCL_0270), SW982 (ATCC, cat. HTB-93, RRID:CVCL_1734), VA-ES-BJ (ATCC, cat. CRL-2138, RRID:CVCL_1785), NCI-H719 (ATCC, cat. CRL-5837, RRID:CVCL_1582), NCI-H196 (ATCC, cat. CRL-5823, RRID:CVCL_1509), NCI-H841 (ATCC, cat. CRL-5845, RRID:CVCL_1595), NCI-H1618 (ATCC, cat. CRL-5879, RRID:CVCL_1480), NCI-H1876 (ATCC, cat. CRL-5902, RRID:CVCL_1503), DMS 114 (ATCC, cat. CRL-2066; RRID:CVCL_1174), NCI-H211 (ATCC, cat. CRL-5824; RRID:CVCL_1529), and SW 1271 (ATCC, cat. CRL-2177, RRID:CVCL_1716). The small cell lung cancer cell line COR-L88 was purchased from Sigma-Aldrich (cat. 92031917-1VL, RRID:CVCL_1141). The non-small cell lung cancer cell lines NCI-H226 (RRID:CVCL_1544) and NCI-H322M (RRID:CVCL_1557) were established at the NCI and grown from internal seed stocks. Pooled donor human umbilical vein endothelial cells (HUVEC, Lonza, cat. CC-2519) and human mesenchymal stem cells (hMSC, Lonza, cat. PT-2501) were purchased from Lonza (Walkersville, MD).
Cell Culture. All cells were maintained in an incubator at 37 degrees C and 5% CO2 with 95% humidity. […]

[1] = second compound 0.003 µM, first compound 0.00949 µM
[2] = second compound 0.003 µM, first compound 0.03 µM
[3] = second compound 0.003 µM, first compound 0.0949 µM
[4] = second compound 0.003 µM, first compound 0.3 µM
[5] = second compound 0.003 µM, first compound 0.949 µM
[6] = second compound 0.003 µM, first compound 3 µM
[7] = second compound 0.00949 µM, first compound 0.00949 µM
[8] = second compound 0.00949 µM, first compound 0.03 µM
[9] = second compound 0.00949 µM, first compound 0.0949 µM
[10] = second compound 0.00949 µM, first compound 0.3 µM
[11] = second compound 0.00949 µM, first compound 0.949 µM
[12] = second compound 0.00949 µM, first compound 3 µM
[13] = second compound 0.03 µM, first compound 0.00949 µM
[14] = second compound 0.03 µM, first compound 0.03 µM
[15] = second compound 0.03 µM, first compound 0.0949 µM
[16] = second compound 0.03 µM, first compound 0.3 µM
[17] = second compound 0.03 µM, first compound 0.949 µM
[18] = second compound 0.03 µM, first compound 3 µM
[19] = second compound 0.0949 µM, first compound 0.00949 µM
[20] = second compound 0.0949 µM, first compound 0.03 µM
[21] = second compound 0.0949 µM, first compound 0.0949 µM
[22] = second compound 0.0949 µM, first compound 0.3 µM
[23] = second compound 0.0949 µM, first compound 0.949 µM
[24] = second compound 0.0949 µM, first compound 3 µM
[25] = second compound 0.3 µM, first compound 0.00949 µM
[26] = second compound 0.3 µM, first compound 0.03 µM
[27] = second compound 0.3 µM, first compound 0.0949 µM
[28] = second compound 0.3 µM, first compound 0.3 µM
[29] = second compound 0.3 µM, first compound 0.949 µM
[30] = second compound 0.3 µM, first compound 3 µM

| Compound | IC50 (second compound 0.003 µM) [nM] | IC50 (second compound 0.00949 µM) [nM] | IC50 (second compound 0.03 µM) [nM] | IC50 (second compound 0.0949 µM) [nM] | IC50 (second compound 0.3 µM) [nM] | viability, T/C [3] [%] | viability, T/C [4] [%] | viability, T/C [5] [%] | viability, T/C [6] [%] | viability, T/C [9] [%] | viability, T/C [10] [%] | viability, T/C [11] [%] | viability, T/C [12] [%] | viability, T/C [15] [%] | viability, T/C [16] [%] | viability, T/C [17] [%] | viability, T/C [18] [%] | viability, T/C [21] [%] | viability, T/C [22] [%] | viability, T/C [23] [%] | also measured |
| --- | --- | --- | --- | --- | --- | --- | --- | --- | --- | --- | --- | --- | --- | --- | --- | --- | --- | --- | --- | --- | --- |
| CNCc1ccc(-c2cc(-c3nc(-c4ccc(S(=O)(=O)C(C)C)cc4)cnc3N)on2)cc1 + CC[C@@]1(O)C(=O)OCc2c1cc1n(c2=O)Cc2cc3c(CN(C)C)c(O)ccc3nc2-1 | 60 | 25 | < 9.49 | < 9.49 | < 9.49 | 37.7 | 17.1 | 2.3 | 0.16 | 23.5 | 14.3 | 3.11 | 0.14 | 23.7 | 11.9 | 1.54 | 0.13 | 12.5 | 9.06 | 1.27 | viability, T/C [1]: 98.5%; viability, T/C [2]: 68.3%; viability, T/C [7]: 80.3%; viability, T/C [8]: 43%; viability, T/C [13]: 31.3%; viability, T/C [14]: 26.6%; viability, T/C [19]: 16.2%; viability, T/C [20]: 17%; viability, T/C [24]: 0.12%; viability, T/C [25]: 8.52%; viability, T/C [26]: 8.82%; viability, T/C [27]: 9.74%; viability, T/C [28]: 6.32%; viability, T/C [29]: 0.95%; viability, T/C [30]: 0.2% |
| Cn1ncnc1[C@H]1c2n[nH]c(=O)c3cc(F)cc(c23)N[C@@H]1c1ccc(F)cc1 + CC[C@@]1(O)C(=O)OCc2c1cc1n(c2=O)Cc2cc3c(CN(C)C)c(O)ccc3nc2-1 | 178 | < 9.49 | < 9.49 | < 9.49 | < 9.49 | 62 | 38.9 | 25.2 | 8.5 | 32.6 | 25.3 | 16.4 | 9.08 | 16.2 | 14 | 10 | 4.96 | 10.9 | 10.4 | 6.74 | viability, T/C [1]: 80.7%; viability, T/C [2]: 72.9%; viability, T/C [7]: 50.9%; viability, T/C [8]: 37.5%; viability, T/C [13]: 18.6%; viability, T/C [14]: 18.6%; viability, T/C [19]: 12.8%; viability, T/C [20]: 10.6%; viability, T/C [24]: 3.77%; viability, T/C [25]: 7.76%; viability, T/C [26]: 7.9%; viability, T/C [27]: 7.53%; viability, T/C [28]: 5.94%; viability, T/C [29]: 5.76%; viability, T/C [30]: 2.99% |
| O=C(c1cc(Cc2n[nH]c(=O)c3ccccc23)ccc1F)N1CCN(C(=O)C2CC2)CC1 + CC[C@@]1(O)C(=O)OCc2c1cc1n(c2=O)Cc2cc3c(CN(C)C)c(O)ccc3nc2-1 | 5040 | 1830 | < 94.9 | < 94.9 | < 94.9 | 104 | 98.3 | 96.9 | 68.6 | 69.3 | 64.6 | 64.9 | 39.1 | 24 | 21.4 | 22.6 | 17.8 | 12.9 | 13.9 | 13.4 | viability, T/C (second compound 0.003 µM, first compound 9.49 µM): 27.3%; viability, T/C (second compound 0.003 µM, first compound 30 µM): 19.7%; viability, T/C (second compound 0.00949 µM, first compound 9.49 µM): 23.8%; viability, T/C (second compound 0.00949 µM, first compound 30 µM): 18%; viability, T/C (second compound 0.03 µM, first compound 9.49 µM): 13.2%; viability, T/C (second compound 0.03 µM, first compound 30 µM): 12.6%; viability, T/C [24]: 11.2%; viability, T/C (second compound 0.0949 µM, first compound 9.49 µM): 9.09%; viability, T/C (second compound 0.0949 µM, first compound 30 µM): 9.45%; viability, T/C [27]: 8.39%; viability, T/C [28]: 8.45%; viability, T/C [29]: 9.03%; viability, T/C [30]: 6.88%; viability, T/C (second compound 0.3 µM, first compound 9.49 µM): 5.76%; viability, T/C (second compound 0.3 µM, first compound 30 µM): 6.93% |
